In this experiment the target is Vascular endothelial growth factor receptor 1 (Homo sapiens, UniProt P17948). Description: Displacement of biotinylated VEGF165 from human recombinant VEGFR1.

SMILES strings stand for the structures. Non-standard residues stand in square brackets, D forms with d. Residues, ends and D or L forms follow the SMILES beside them. *: point of attachment. X2 = [N-]=[N+]=N[C@@H](CCCCN)C(=O)*; Pra = C#CC[C@H](N)C(=O)O

Chain of Vascular endothelial growth factor receptor 1 (P17948 whole entry): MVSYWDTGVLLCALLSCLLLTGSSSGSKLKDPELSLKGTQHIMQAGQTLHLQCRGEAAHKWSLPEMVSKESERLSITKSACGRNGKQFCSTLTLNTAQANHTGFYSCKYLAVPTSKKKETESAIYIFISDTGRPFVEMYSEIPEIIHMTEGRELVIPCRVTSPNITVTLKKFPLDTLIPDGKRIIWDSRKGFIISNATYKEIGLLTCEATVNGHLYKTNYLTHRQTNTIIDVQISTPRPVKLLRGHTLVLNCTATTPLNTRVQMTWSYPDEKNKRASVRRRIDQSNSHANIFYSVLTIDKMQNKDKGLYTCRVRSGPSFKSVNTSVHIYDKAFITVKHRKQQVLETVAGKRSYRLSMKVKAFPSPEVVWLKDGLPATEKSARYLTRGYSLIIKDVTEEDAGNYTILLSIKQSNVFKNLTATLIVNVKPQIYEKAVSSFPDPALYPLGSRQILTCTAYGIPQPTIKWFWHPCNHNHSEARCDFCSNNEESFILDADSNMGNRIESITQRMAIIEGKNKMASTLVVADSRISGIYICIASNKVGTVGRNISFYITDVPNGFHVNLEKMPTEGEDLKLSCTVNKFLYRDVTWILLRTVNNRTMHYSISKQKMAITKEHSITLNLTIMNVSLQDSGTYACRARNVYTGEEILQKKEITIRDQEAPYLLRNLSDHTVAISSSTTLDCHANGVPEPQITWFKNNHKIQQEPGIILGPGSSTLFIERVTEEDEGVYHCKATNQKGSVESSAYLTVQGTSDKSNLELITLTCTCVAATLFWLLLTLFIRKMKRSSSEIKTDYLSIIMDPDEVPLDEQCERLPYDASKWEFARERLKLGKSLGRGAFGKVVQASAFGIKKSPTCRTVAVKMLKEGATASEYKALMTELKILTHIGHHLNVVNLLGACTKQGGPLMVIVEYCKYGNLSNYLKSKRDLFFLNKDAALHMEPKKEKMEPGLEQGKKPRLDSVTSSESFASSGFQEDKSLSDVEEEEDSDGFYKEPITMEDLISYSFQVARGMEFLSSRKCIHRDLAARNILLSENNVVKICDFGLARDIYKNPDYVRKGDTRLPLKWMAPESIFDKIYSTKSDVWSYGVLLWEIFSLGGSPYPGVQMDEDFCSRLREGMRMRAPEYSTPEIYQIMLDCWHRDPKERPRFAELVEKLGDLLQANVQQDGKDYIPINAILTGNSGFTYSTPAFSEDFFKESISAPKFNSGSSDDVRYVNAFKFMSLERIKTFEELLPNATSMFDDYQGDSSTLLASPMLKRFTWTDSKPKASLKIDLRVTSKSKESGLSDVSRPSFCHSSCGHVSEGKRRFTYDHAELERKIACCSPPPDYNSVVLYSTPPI

As for `C#CC[C@H](NC(=O)[C@H](CCC(=O)O)NC(=O)[C@H](CC(C)C)NC(=O)[C@@H]1CCCN1C(=O)[C@H](CCC(=O)O)NC(=O)[C@H](CC(=O)O)NC(=O)[C@H](Cc1ccc(O)cc1)NC(=O)[C@H](CCCCN)N=[N+]=[N-])C(N)=O` (X2-YDEPLE[Pra]-NH2), the IC50 (in general, the midpoint of a concentration-inhibition curve) is 151 µM.
Regarding `CSCC[C@@H]1NC(=O)[C@H](CCC(N)=O)NC(=O)[C@H](Cc2cnc[nH]2)NC(=O)Cn2cc(nn2)C[C@@H](C(N)=O)NC(=O)[C@H](Cc2ccc(O)cc2)NC(=O)[C@H](Cc2ccc(O)cc2)NC(=O)[C@H](Cc2ccccc2)NC1=O`, the IC50 was determined as 121 µM.

Source of the values: ChEMBL document CHEMBL1140450, “On-resin cyclization of peptide ligands of the Vascular Endothelial Growth Factor Receptor 1 by copper(I)-catalyzed 1,3-dipolar azide-alkyne cycloaddition” (Bioorg Med Chem Lett, 2007).
